Experimental data from PubChem BioAssay AID248 (DTP/NCI, 2004).
Values joined by “and” are separate entries in the source; they are usually repeats but may differ in a detail not shown here. Equal entries are not always repeated. Toxic doses and inconclusive results are not listed. No stated cut-off is given here; in the data, active means T/C of 150% or more; inactive means T/C below 125%.

Tested on: L1210 leukemia ip in BDF1 mice, survival T/C
Assay: NCI In Vivo Anticancer Drug Screen. Data for tumor model L1210 Leukemia (intraperitoneal) in B6D2F1 (BDF1) mice
Conditions: endpoint: mean survival time, higher = longer survival
Summary of the method: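 Antitumor effect is assessed in tumor-bearing animals. Survival in the compound arm is compared with a vehicle-dosed control arm and expressed as their quotient.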

[1] = dose: 100.0 mg/kg/injection, schedule: Q01DX009 (ip), vehicle: Klucel (hydroxypropylcellulose) (HPC)
[2] = dose: 100.0 mg/kg/injection, schedule: Q04DX003 (ip), vehicle: saline
[3] = dose: 200.0 mg/kg/injection, schedule: Q01DX009 (ip), vehicle: Klucel (hydroxypropylcellulose) (HPC)
[4] = dose: 400.0 mg/kg/injection, schedule: Q01DX009 (ip), vehicle: Klucel (hydroxypropylcellulose) (HPC)
[5] = dose: 100.0 mg/kg/injection, schedule: Q04DX002 (ip), vehicle: saline with Tween-80
[6] = dose: 100.0 mg/kg/injection, schedule: Q01DX009 (ip), vehicle: saline with Tween-80
[7] = dose: 200.0 mg/kg/injection, schedule: Q01DX009 (ip), vehicle: saline with Tween-80
[8] = dose: 400.0 mg/kg/injection, schedule: Q01DX009 (ip), vehicle: saline with Tween-80
[9] = dose: 100.0 mg/kg/injection, schedule: Q04DX003 (ip), vehicle: saline with Tween-80
[10] = dose: 200.0 mg/kg/injection, schedule: Q04DX003 (ip), vehicle: saline with Tween-80
[11] = dose: 400.0 mg/kg/injection, schedule: Q04DX003 (ip), vehicle: saline with Tween-80
[12] = dose: 100.0 mg/kg/injection, schedule: Q01DX001 (ip), vehicle: saline
[13] = dose: 200.0 mg/kg/injection, schedule: Q01DX001 (ip), vehicle: saline
[14] = dose: 400.0 mg/kg/injection, schedule: Q01DX001 (ip), vehicle: saline

Measured: T/C

COc1ccc(Cl)cc1NC(=O)N1CCN(c2ccccc2)CC1
inactive: [1] 120 % of control | [2] 101 % of control | [3] 97 % of control | dose: 200.0 mg/kg/injection, schedule: Q04DX003 (ip), vehicle: saline 101 % of control | [4] 111 % of control | dose: 400.0 mg/kg/injection, schedule: Q04DX003 (ip), vehicle: saline 97 % of control

CCOc1cc2ccc3c4cc(OC)c(OC)cc4c[n+](C)c3c2cc1OCC
inactive: [5] 98 % of control

CCN(CC)CCOc1ccccc1C(C)C
inactive: dose: 20.0 mg/kg/injection, schedule: Q04DX003 (ip), vehicle: saline 118 % of control | dose: 40.0 mg/kg/injection, schedule: Q04DX003 (ip), vehicle: saline 97 % of control | dose: 80.0 mg/kg/injection, schedule: Q04DX003 (ip), vehicle: saline 94 % of control | [2] 101 % of control

CC1(C)OCC2SC(n3cnc4c(N)ncnc43)C(OS(C)(=O)=O)C2O1 (stereo unspecified)
inactive: dose: 100.0 mg/kg/injection, schedule: Q01DX005 (ip), vehicle: saline 97 % of control | dose: 200.0 mg/kg/injection, schedule: Q01DX005 (ip), vehicle: saline 90 % of control

N#C/C(=C\C1CCC(OCC2CCCCC2)CC1)C1CCC([N+](=O)[O-])CC1 (stereo unspecified)
inactive: dose: 25.0 mg/kg/injection, schedule: Q04DX002 (ip), vehicle: saline with Tween-80 97 % of control | dose: 50.0 mg/kg/injection, schedule: Q04DX002 (ip), vehicle: saline with Tween-80 102 % of control | [5] 100 % of control and 91 % of control

COc1ccc([N+](=O)[O-])cc1Br
inactive: [6] 100 % of control | [7] 96 % of control | [8] 98 % of control

Cc1c2oc3c(C)ccc(C(=O)NCCN4CCOCC4)c3nc-2c(C(=O)NCCN2CCOCC2)c(N)c1=O
inactive: [5] 98 % of control | dose: 200.0 mg/kg/injection, schedule: Q04DX002 (ip), vehicle: saline with Tween-80 92 % of control

Nc1ccc(S(=O)O)cc1
inactive: [6] 94 % of control | [9] 105 % of control | [7] 91 % of control | [10] 95 % of control | [8] 94 % of control | [11] 91 % of control

CSc1cc(N)cc(C(=O)O)c1O
inactive: [6] 92 % of control | [7] 89 % of control | [8] 88 % of control

COc1cc(OC)c(OC)cc1/C=N/Nc1ccc(C(=O)O)cc1
inactive: [6] 95 % of control | [9] 96 % of control | [7] 97 % of control | [10] 94 % of control | [8] 101 % of control | [11] 98 % of control

O=C(O)c1cccc2c1C(=O)c1cc([N+](=O)[O-])ccc1-2
inactive: dose: 75.0 mg/kg/injection, schedule: Q01DX001 (ip), vehicle: carboxymethylcellulose (CMC) 101 % of control | dose: 150.0 mg/kg/injection, schedule: Q01DX001 (ip), vehicle: carboxymethylcellulose (CMC) 105 % of control

O=c1[nH]nc(-c2ccc(Cl)cc2Cl)s1
inactive: dose: 100.0 mg/kg/injection, schedule: Q04DX003 (ip), vehicle: Klucel (hydroxypropylcellulose) (HPC) 95 % of control | dose: 200.0 mg/kg/injection, schedule: Q04DX003 (ip), vehicle: Klucel (hydroxypropylcellulose) (HPC) 101 % of control | dose: 400.0 mg/kg/injection, schedule: Q04DX003 (ip), vehicle: Klucel (hydroxypropylcellulose) (HPC) 112 % of control

Cc1cccc(NC(=O)Nc2cccc(C(F)(F)F)c2)n1
inactive: dose: 100.0 mg/kg/injection, schedule: Q01DX009 (ip), vehicle: gum acacia 92 % of control | dose: 200.0 mg/kg/injection, schedule: Q01DX009 (ip), vehicle: gum acacia 87 % of control | dose: 400.0 mg/kg/injection, schedule: Q01DX009 (ip), vehicle: gum acacia 89 % of control

COc1cc2ccccc2cc1C(=O)NN
inactive: dose: 75.0 mg/kg/injection, schedule: Q04DX003 (ip), vehicle: Klucel (hydroxypropylcellulose) (HPC) 94 % of control | dose: 150.0 mg/kg/injection, schedule: Q04DX003 (ip), vehicle: Klucel (hydroxypropylcellulose) (HPC) 102 % of control | dose: 300.0 mg/kg/injection, schedule: Q04DX003 (ip), vehicle: Klucel (hydroxypropylcellulose) (HPC) 97 % of control

CC(C)NC(=O)c1cc(NC(=O)c2ccc(C(=O)Nc3cc(C(=O)NC(C)C)cc(C4=NCCN4)c3)cc2)cc(C2=NCCN2)c1
inactive: dose: 2.5 mg/kg/injection, schedule: Q01DX015 (ip), vehicle: water 89 % of control | dose: 5.0 mg/kg/injection, schedule: Q01DX015 (ip), vehicle: water 97 % of control | dose: 10.0 mg/kg/injection, schedule: Q01DX015 (ip), vehicle: water 92 % of control | dose: 18.75 mg/kg/injection, schedule: Q01DX015 (ip), vehicle: water 101 % of control | dose: 20.0 mg/kg/injection, schedule: Q01DX015 (ip), vehicle: water 95 % of control | dose: 37.5 mg/kg/injection, schedule: Q01DX015 (ip), vehicle: water 96 % of control

C/C=C/C=C/COC(=O)CCCCCCCC
inactive: dose: 100.0 mg/kg/injection, schedule: Q04DX002 (ip), vehicle: saline 103 % of control | dose: 200.0 mg/kg/injection, schedule: Q04DX002 (ip), vehicle: saline 103 % of control | dose: 400.0 mg/kg/injection, schedule: Q04DX002 (ip), vehicle: saline 108 % of control

CC(=O)NC1C(O)CC(O)(C(=O)O)OC1C(O)C(O)CO (stereo unspecified)
inactive: [12] 98 % of control | [13] 100 % of control | [14] 94 % of control

COc1cc2c(cc1OC)-c1c(=O)c3cc(OC)c(OC)cc3n([O-])[n+]1CC2
inactive: [12] 93 % of control | [13] 94 % of control | [14] 89 % of control

CC/C(=C\c1ccc2ccccc2c1)[N+](=O)[O-]
inactive: dose: 75.0 mg/kg/injection, schedule: Q01DX001 (ip), vehicle: saline 97 % of control | dose: 150.0 mg/kg/injection, schedule: Q01DX001 (ip), vehicle: saline 103 % of control

CSc1ccc(NC(=O)Nc2ccc(Cl)cc2C(=O)c2ccccc2)cc1
inactive: [1] 91 % of control | [3] 88 % of control

O=C(O)CCCCSCCSCCCCC(=O)O
inactive: [1] 101 % of control | [3] 94 % of control | [4] 86 % of control

CC(=O)NC1CCC(C(C)(C)C)CC1 (stereo unspecified)
inactive: [6] 102 % of control | dose: 100.0 mg/kg/injection, schedule: Q04DX002 (ip), vehicle: Klucel (hydroxypropylcellulose) (HPC) 93 % of control | [7] 108 % of control | dose: 200.0 mg/kg/injection, schedule: Q04DX002 (ip), vehicle: Klucel (hydroxypropylcellulose) (HPC) 90 % of control | dose: 400.0 mg/kg/injection, schedule: Q04DX002 (ip), vehicle: Klucel (hydroxypropylcellulose) (HPC) 103 % of control

O=C1C=C(C(=O)O)CO1
inactive: [1] 95 % of control

O=C(O)c1ccc(C(=O)/C=N/O)nc1
inactive: [1] 90 % of control | [3] 93 % of control | [4] 97 % of control

Cc1ccc2nc(-c3cccc([N+](=O)[O-])c3)oc(=O)c2c1
inactive: [9] 87 % of control | [10] 97 % of control | [11] 97 % of control

CC(C)=CCC/C(C)=C/Cn1c(=O)cc[nH]c1=O
inactive: dose: 100.0 mg/kg/injection, schedule: Q04DX003 (ip), vehicle: other 96 % of control | dose: 200.0 mg/kg/injection, schedule: Q04DX003 (ip), vehicle: other 86 % of control | dose: 400.0 mg/kg/injection, schedule: Q04DX003 (ip), vehicle: other 86 % of control

CC(=O)Oc1ccc2c(c1)C(=O)CCCCCC(=O)O2
inactive: dose: 50.0 mg/kg/injection, schedule: Q04DX003 (ip), vehicle: saline with Tween-80 95 % of control | [10] 117 % of control
